Source: US20130085133A1, “ANTI-VIRAL TREATMENT AND ASSAY TO SCREENFOR ANTI-VIRAL AGENT” (Sourthern Research Institute Office of Commercialization …, priority 2010, published 2013)

Legend:
RSV, Long strain = test: virus titer Reduction (VTR) assay, progeny virus TCID50 in HEp-2 cells; type: cell-based, respiratory syncytial virus (RSV); conditions: human respiratory syncytial virus, 48 h; for log reduction at 3 µg/mL: 3 ug/ml compound, read-out: TCID-50 Reduction @ 3 ug/ml; for log reduction at 6 µg/mL: 6 ug/ml compound, read-out: TCID-50 Reduction 6 @ ug/ml; for log reduction at 12 µg/mL: 12 ug/ml compound, read-out: TCID-50 Reduction 12 @ ug/ml; for log reduction at 25 µg/mL: 25 ug/ml compound, read-out: TCID-50 Reduction 25 @ ug/ml; for log reduction at 5 µg/mL: 5 ug/ml compound, read-out: TCID-50 Reduction @ 5 ug/ml; for log reduction at 50 µg/mL: 50 ug/ml compound, read-out: TCID-50 Reduction @ 50 ug/ml
Description: Four concentrations of each compound were evaluated (Table 3). Briefly, the four concentrations of test compounds, HEp-2 cells (8×10^3 per well) and RSV, Long strain (MOI=0.9) were plated in 96 well microtiter plates. The plates were incubated for 48 hours. Fifteen (15) μl of 10-fold serial dilution of progeny virus containing medium from respective samples (test compound treated or untreated) was transferred to infect fresh HEp-2 cells (2×10^3 cells per well) in a 384 well format. Plates were incubated for an additional 6 days and luminescence was measured using Cell Titer-Glo reagent (Promega Inc.) to determine cell viability. […] A well showing lesser than 50% cell viability was regarded as positive for virus infection. Four replicates for each virus dilution were analyzed and the number of virus positive wells (out of 4) was plotted versus the dilution. TCID50 was calculated to be the dilution that produced two positive wells out of four using ActivityBase software (IDBS, Inc, Guilford, UK).

[1] = test system: respiratory syncytial virus (RSV) strain Long; test: microbe, parasite or virus in culture; conditions: human respiratory syncytial virus, HEp-2, 144 h
Description: The assay measures RSV virus-induced CPE in HEp-2 cells using cell viability as the end point.
Two vials of RSV (strain Long) containing 1×10^7 pfu/mL was thawed using an Eppendorf thermomixer for 13 min at 15° C., with shaking at 350 rpm. […] The cells were incubated for 18-20 h at 37° C., 5% CO2, 90% relative humidity. The medium was aspirated and the cells washed with 10 mL PBS without Mg^2+ or Ca^2+. Cells were harvested from flasks using 0.25% trypsin-EDTA. The cells were resuspended in a freezing medium of 95% fetal calf serum and 5% DMSO to a final cell density of 2×10^6 cells/mL. One mL aliquots of this virus infected cell suspension were dispensed to cryovials and cells were rate frozen to −80° C. Frozen infected cells were then transferred to −150° C. for long term storage.
Test compounds were evaluated by measuring their antiviral activity, cell toxicity, and selectivity. Test compounds were serially diluted in a plate to plate matrix or “stacked plate” matrix. All 320 compounds in a source plate were diluted together resulting in a 10 point dose response dilution series. It was visualized as a serial dilution series proceeding vertically through a stack of plates with the high dose plate on top and the low dose plate on the bottom.
Cells were harvested and resuspended to 80,000 cells per ml in Complete DMEM/F12.
Cells were thawed in a room temperature water bath with gentle agitation. The tube was inverted 5-10. Cells were diluted to 80,000 cells per ml by adding the contents of the vial to 24 ml of cold (4° C.) media.
Twenty five ul of uninfected HEp-2 cells were plated in the cell control wells. Frozen infected cells were combined with uninfected HEp-2 cells at a 1:100 ratio. Twenty five ul of the cell mixture was added to the virus control and compound wells. All cell plating was conducted using a Matrix WellMate and cells were maintained at room temperature with stirring during the plating process. The assay plates were incubated for six days at 37° C., 5% CO2 and 90% relative humidity.
Following the six day incubation period, the assay plates were equilibrated to room temperature for 30 min and an equal volume (30 μL) of Cell Titer-Glo reagent (Promega Inc.) was added to each well using a WellMate (Matrix, Hudson, N.H.) and plates were incubated for an additional 10 min at room temperature. At the end of the incubation, luminescence was measured using a Perkin Elmer Envision™ multi-label reader (PerkinElmer, Wellesley, Mass.) with an integration time of 0.1 s.
Data was analyzed using ActivityBase software (IDBS, Inc, Guilford, UK). thirty two control wells containing cells only and twenty four wells containing cells and virus were included on each assay plate and used to calculate Z′ value for each plate and to normalize the data on a per plate basis. […] Eight ribavirin positive control wells were included on each plate for quality control purposes, but were not used in Z′ calculations. […] In the toxicity assay, results are described as percent viability and the calculation is the same.
An EC50 (for CPE inhibition) and IC50 (for cell viability) were calculated for each substance using the 4 parameter Levenburg-Marquardt algorithm with parameter A locked at 0 and parameter B locked at 100. Standard deviation, normalized chi2 and hill slope were used to evaluate the curves. Values were not extrapolated beyond the tested range of concentrations.

[2] = cytotoxicity assay (percent viability of HEp-2 cells, Cell Titer-Glo); conditions: human, HEp-2 cells

SMILES	EC50 [1]	log reduction at 3 µg/mL (RSV, Long strain)	log reduction at 6 µg/mL (RSV, Long strain)	log reduction at 12 µg/mL (RSV, Long strain)	log reduction at 25 µg/mL (RSV, Long strain)	CC50 at 6 days [2]	log reduction at 5 µg/mL (RSV, Long strain)	log reduction at 50 µg/mL (RSV, Long strain)
Cc1ccccc1C(=O)N1CCCN(C(=O)c2ccccc2C)CC1 [AB00312102]	3.71 µg/mL	1.53	1.86	2.68	2.39	> 25 µg/mL		
O=C(CCSc1ccccc1)Nc1ccccc1C(=O)O [AB00289457]	2.97 µg/mL	1	4.9	6.73	6.57	> 25 µg/mL		
CC(=O)N(CCCCN1C(=O)c2ccccc2C1=O)c1ccc(C)cc1 [AB00300194]	9.01 µg/mL	1.41		2.04	2.56	> 25 µg/mL	1.83	
COC(=O)c1c(-c2ccccc2)csc1NC(=O)c1ccccc1Cl [AB00311298]	7.72 µg/mL	1.53	1.86	1.9	1.88	> 25 µg/mL		
O=C1c2ccccc2C(=O)N1CCCCN(C(=O)c1cccc([N+](=O)[O-])c1)c1ccc(Cl)cc1 [AB00301782]	2.01 µg/mL	1.55	1.64	1.42	0.87	> 25 µg/mL		
COCc1cc(C)nc(SCC(=O)Nc2ccccc2C(=O)c2ccccc2)c1C#N [AB00341850]	2.19 µg/mL	1	2.3	2.41	2.23	> 25 µg/mL		
CC1(C)O[C@@H]2[C@H](O1)[C@@H](CO)O[C@H]2n1ncc(=O)[nH]c1=O [AB00174524]	3.25 µM			5.98	5.56	> 50 µM	4.58	5.87
Cc1ccc(N(CCCCN2C(=O)c3ccccc3C2=O)C(=O)c2cccc([N+](=O)[O-])c2)cc1 [AB00301184]	2.53 µg/mL	1.53	1.67	1.9	1.88	> 25 µg/mL		
CCOc1ccccc1OCCOCCOc1cccc2cccnc12 [AB00289145]	24.2 µg/mL					> 25 µg/mL		
CCCCC(=O)Nc1cccc(NC(=O)c2ccc(OCC)c([N+](=O)[O-])c2)c1 [AB00318606]	23.5 µg/mL					> 25 µg/mL		

Second part, led by results:

EC50 [1]	SMILES	log reduction at 3 µg/mL (RSV, Long strain)	log reduction at 6 µg/mL (RSV, Long strain)	log reduction at 12 µg/mL (RSV, Long strain)	log reduction at 25 µg/mL (RSV, Long strain)	CC50 at 6 days [2]	log reduction at 5 µg/mL (RSV, Long strain)	log reduction at 50 µg/mL (RSV, Long strain)
4.37 µg/mL	CSc1ccccc1C(=O)Nc1ccc(S(=O)(=O)Nc2cccc(Cl)c2Cl)cc1 [AB00370446]	1	1.32	3.21	6.57	> 25 µg/mL		
6.76 µg/mL	CCOC(=O)Cc1ccc(NC(=O)c2cc(SC)ccc2Cl)cc1 [AB00359299]	1	1.22	1.99	2.83	> 25 µg/mL		
9.58 µM	COCCn1c(SC(C)C(=O)Nc2cccc(C(F)(F)F)c2)nc2ccccc21 (stereo not drawn) [AB00802246]			3.98	4.42	> 50 µM	2.26	5.87
1.71 µg/mL	c1coc(-c2nn3c(Cn4cnc5ccccc54)nnc3s2)c1 [AB00369924]	1	2.62	3.22	2.61	> 25 µg/mL		
0.83 µg/mL	O=C(Cc1c(F)cccc1Cl)Nc1nc2c(s1)CCCC2 [AB00361531]	1.55	1.74	3.09	3.78	> 25 µg/mL		
9.09 µM	CC(=O)Nc1nc(N)nc2ccc(CNc3ccc(C(=O)N[C@H](CCC(=O)O)C(=O)O)cc3)nc12 [SRI-10531]			0.97	-0.02	> 50 µM	0.16	0.28
38.7 µM	CCOc1ccc(Nc2nc3cc(S(=O)(=O)N(CC)CC)ccc3o2)cc1 [AB00536652]					> 50 µM		
